Results on 29 compounds are retold here after patent US7307077B2, “Heterocyclic compound and antitumor agent containing the same as effective ingredient” (Zenyaku Kogyo Kabushiki Kaisha, priority 2001, dated 2007).

The subject of one data set is MCF-7 cells. In words: Test 1: growth inhibition of MCF-7 human breast cancer cells. Type of data set: cell-based. The note with it: read-out: GI50 (50% growth inhibition concentration). How it is done:
Used in the test were MCF-7 cells which were established from human breast cancer and were cultured routinely under the conditions of 37° C. and 5% CO2, in MEM medium supplemented with 10% fetal calf serum, 25 mM of HEPES and 0.1 mg/ml of kanamycin. The MCF-7 cells in a logarithmic growth phase were treated with trypsin/EDTA to prepare single cell suspension adjusted to 4.0×10^4 cells/ml in MEM medium (supplemented with 10% fetal calf serum, 25 mM of HEPES and 0.1 mg/ml of kanamycin). Test compounds were dissolved in DMSO and diluted with RPMI 1640 medium (supplemented with 10% fetal calf serum, 25 mM of HEPES and 0.1 mg/ml of kanamycin) to a concentration of 2.0×10^−4-2.0×10^−9 M.
The cell suspension was filled in a 96-wells microplate at a rate of 0.1 ml per well and was cultured for 24 hours so as to make the cells adhered to the microplate. Then, it was added with 0.1 ml of the sample solution and cultured at 37° C. for 72 hours in 5% CO2.
50% Growth inhibition concentrations (GI50 μM) were calculated from growth inhibitions at various sample concentrations.

Where [1] appears, read: Homo sapiens, MCF7, 72 hours culture with sample.

Structures are written as SMILES. Read-outs that look alike come from different tables or passages of the source. Bounds are passed on as bounds.

Regarding `FC(F)c1nc2ccccc2n1-c1nc(N2CCOCC2)nc(N2CCSCC2)n1` [compound 16, 2-(2-difluoromethylbenzimidazol-1-yl)-4-morpholino-6-thiomorpholino-1,3,5-triazine], the GI50 in the data set on MCF-7 cells (setting [1]) stood at 350 nM.

Regarding `C[C@@H]1OCCN(c2nc(N3CCOCC3)nc(-n3c(NC=O)nc4ccccc43)n2)[C@H]1C` (relative stereo) [compound 26, 2-(trans-2,3-dimethylmorpholino)-4-(2-formylaminobenzimidazol-1-yl)-6-morpholino-1,3,5-triazine], the GI50 in the data set on MCF-7 cells (setting [1]) was less than 40 nM. What is called melting point is the temperature of the solid-liquid transition. `CC1(C)CN(c2nc(N3CCOCC3)nc(-n3c(C(F)F)nc4ccccc43)n2)CCO1` [compound 15, 2-(2-difluoromethylbenzimidazol-1-yl)-4-(2,2-dimethylmorpholino)-6-morpholino-1,3,5-triazine] returned a melting point of 176 to 178 °C. The GI50 in the data set on MCF-7 cells (setting [1]) amounted to 130 nM.

`C[C@@H]1CN(c2nc(N3CCOCC3)nc(-n3c(NC=O)nc4ccccc43)n2)C[C@H](C)O1` [compound 28, 2-(cis-2,6-dimethylmorpholino)-4-(2-formylaminobenzimidazol-1-yl)-6-morpholino-1,3,5-triazine] yielded a melting point of 242 to 244 °C. `c1cn(-c2nc(N3CCOCC3)nc(N3CCOCC3)n2)cn1` [compound C, 2-(imidazol-1-yl)-4,6-dimorpholino-1,3,5-triazine, reference compound]: the GI50 with MCF-7 cells (setting [1]) came out at 20000 nM.

As for `Cc1nc2ccccc2n1-c1nc(N2CCOCC2)nc(N2CCOCC2)n1` [compound B, 2-(2-methylbenzimidazol-1-yl)-4,6-dimorpholino-1,3,5-triazine, reference compound], the GI50 with MCF-7 cells (setting [1]) was found to be 3700 nM.

Compound `FC(F)c1nc2ccccc2n1-c1nc(N2CCOCC2)cc(N2CCSCC2)n1` [compound 3, 2-(2-difluoromethylbenzimidazol-1-yl)-4-morpholino-6-thiomorpholinopyrimidine] yielded a melting point of 173 to 175 °C. Besides, the GI50 in the data set with MCF-7 cells (setting [1]) turned out to be 380 nM.

For the compound `Oc1ccc2c(c1)nc(C(F)F)n2-c1nc(N2CCOCC2)cc(N2CCOCC2)n1` [compound 40, 2-(2-difluoromethyl-5-hydroxybenzimidazol-1-yl)-4,6-dimorpholinopyrimidine], the melting point was 223 to 226 °C (dec.). In addition, the GI50 in the data set on MCF-7 cells (setting [1]) came to 210 nM.

As for `FC(F)c1nc2ccccc2n1-c1nc(N2CCOCC2)cc(N2CCOCC2)n1` [compound 2, 2-(2-difluoromethylbenzimidazol-1-yl)-4,6-dimorpholinopyrimidine], the melting point lay within 201 to 202 °C. Besides, the GI50 in the data set with MCF-7 cells (setting [1]) turned out to be 210 nM. On the same counts, the results for `C[C@@H]1OCCN(c2cc(N3CCOCC3)nc(-n3c(C(F)F)nc4ccccc43)n2)[C@@H]1C` (relative stereo) [compound 1, 2-(2-difluoromethylbenzimidazol-1-yl)-4-(cis-2,3-dimethylmorpholino)-6-morpholinopyrimidine] are 167 to 169 °C and 110 nM.

As for `C[C@@H]1OCCN(c2nc(N3CCOCC3)nc(-n3c(C(F)F)nc4cc(O)ccc43)n2)[C@@H]1C` (relative stereo) [compound 37, 2-(2-difluoromethyl-5-hydroxybenzimidazol-1-yl)-4-(2,3-cis-dimethylmorpholino)-6-morpholino-1,3,5-triazine], the melting point is 170 to 175 °C (dec.). The GI50 in the data set with MCF-7 cells (setting [1]) came out at 90 nM.

`C[C@@H]1OCCN(c2cc(N3CCOCC3)nc(-n3c(N)nc4ccccc43)n2)[C@@H]1C.Cl` (relative stereo) [compound 30, 2-(2-aminobenzimidazol-1-yl)-4-(cis-2,3-dimethylmorpholino)-6-morpholinopyrimidine hydrochloride] returned a melting point of 151 to 155 °C. In the data set with MCF-7 cells (setting [1]), the GI50 came to 250 nM. In the case of `C[C@@H]1COC(C)(C)CN1c1nc(N2CCOCC2)nc(-n2c(C(F)F)nc3ccccc32)n1` [compound 20, 2-(2-difluoromethylbenzimidazol-1-yl)-4-morpholino-6-[2,2,5(R)-trimethylmorpholino]-1,3,5-triazine], the melting point lay within 169 to 171 °C. For the same compound, the GI50 in the data set with MCF-7 cells (setting [1]) was 220 nM. `Nc1cccc2c1nc(C(F)F)n2-c1nc(N2CCOCC2)nc(N2CCOCC2)n1` [compound 34, 2-(4-amino-2-difluoromethylbenzimidazol-1-yl)-4,6-dimorpholino-1,3,5-triazine]: the melting point is 214 to 216 °C (dec.). Moreover, the GI50 in the data set with MCF-7 cells (setting [1]) was found to be 80 nM.

For `C[C@H]1COC(C)(C)CN1c1cc(N2CCOCC2)nc(-n2c(C(F)F)nc3ccccc32)n1` [compound 8, 2-(2-difluoromethylbenzimidazol-1-yl)-4-morpholino-6-[2,2,5(S)-trimethylmorpholino]pyrimidine], the melting point is 113 to 116 °C. Also, in the data set with MCF-7 cells (setting [1]), the GI50 was found to be 320 nM.

Turning to `C[C@@H]1OCCN(c2cc(N3CCOCC3)nc(-n3c(CF)nc4ccccc43)n2)[C@@H]1C` (relative stereo) [compound 9, 4-(cis-2,3-dimethylmorpholino)-2-(2-fluoromethylbenzimidazol-1-yl)-6-morpholinopyrimidine], the melting point was in the range of 163 to 165 °C. In the data set on MCF-7 cells (setting [1]), the GI50 stood at 200 nM. On the same counts, the results for `CC1(C)CN(c2cc(N3CCOCC3)nc(-n3c(C(F)F)nc4ccccc43)n2)CCO1` [compound 5, 2-(2-difluoromethylbenzimidazol-1-yl)-4-(2,2-dimethylmorpholino)-6-morpholinopyrimidine] are 149 to 152 °C and 220 nM. The matching figures for `C[C@@H]1OCCN(c2cc(N3CCOCC3)nc(-n3c(NC=O)nc4ccccc43)n2)[C@H]1C` (relative stereo) [compound 27, 4-(trans-2,3-dimethylmorpholino)-2-(2-formylaminobenzimidazol-1-yl)-6-morpholinopyrimidine]: 143 to 146 °C and 160 nM. `CCC(=O)Nc1nc2ccccc2n1-c1nc(N2CCOCC2)nc(N2CCO[C@@H](C)[C@@H]2C)n1` (relative stereo) [compound 25, 2-(2-propionylaminobenzimidazol-1-yl)-4-(trans-2,3-dimethylmorpholino)-6-morpholino-1,3,5-triazine]: the GI50 in the data set with MCF-7 cells (setting [1]) stood at 190 nM.

As to `C[C@@H]1OCCN(c2cc(N3CCOCC3)nc(-n3cnc4ccccc43)n2)[C@H]1C` (relative stereo) [compound A, 2-(benzimidazol-1-yl)-4-(trans-2,3-dimethylmorpholino)-6-morpholinopyrimidine], the GI50 in the data set on MCF-7 cells (setting [1]) came out at 2200 nM. As for `C[C@@H]1CO[C@@H](C)CN1c1nc(N2CCOCC2)nc(-n2c(C(F)F)nc3ccccc32)n1` (relative stereo) [compound 18, 2-(2-difluoromethylbenzimidazol-1-yl)-4-(trans-2,5-dimethylmorpholino)-6-morpholino-1,3,5-triazine], the GI50 in the data set on MCF-7 cells (setting [1]) was 180 nM.

`CC1(C)CN(c2nc(N3CCOCC3)nc(-n3c(C(F)F)nc4c(O)cccc43)n2)CCO1` [compound 38, 2-(2-difluoromethyl-4-hydroxybenzimidazol-1-yl)-4-(2,2-dimethylmorpholino)-6-morpholino-1,3,5-triazine]: the melting point is 228 to 231 °C (dec.). For the same compound, the GI50 with MCF-7 cells (setting [1]) is 30 nM. The matching figures for `Nc1ccc2nc(C(F)F)n(-c3nc(N4CCOCC4)cc(N4CCOCC4)n3)c2c1` [compound 35, 2-(6-amino-2-difluoromethylbenzimidazol-1-yl)-4,6-dimorpholinopyrimidine]: 218 to 219 °C (dec.) and 140 nM. `C[C@@H]1OCCN(c2cc(N3CCOCC3)nc(-n3c(N)nc4ccccc43)n2)[C@@H]1C` (relative stereo) [Example 2, 2-(2-aminobenzimidazol-1-yl)-4-(cis-2,3-dimethylmorpholino)-6-morpholinopyrimidine] had a melting point of 129 to 133 °C. On to `C[C@@H]1OCCN(c2cc(N3CCOCC3)nc(-n3c(C(F)F)nc4ccccc43)n2)[C@H]1C` (relative stereo) [compound 4, 2-(2-difluoromethylbenzimidazol-1-yl)-4-(trans-2,3-dimethylmorpholino)-6-morpholinopyrimidine], for which, in the data set on MCF-7 cells (setting [1]), the GI50 was 180 nM. As for `[O-][S+]1CCN(c2nc(N3CCOCC3)nc(-n3c(C(F)F)nc4ccccc43)n2)CC1` [compound 21, 2-(2-difluoromethylbenzimidazol-1-yl)-4-morpholino-6-(tetrahydro-1,4-thiazin-1-oxo-4-yl)-1,3,5-triazine], in the data set on MCF-7 cells (72 hours culture with sample), the GI50 came out at 340 nM. Consider `CC1CN(c2cc(N3CCOCC3)nc(-n3c(C(F)F)nc4ccccc43)n2)CCO1` (centres unmarked) [compound 6, 2-(2-difluoromethylbenzimidazol-1-yl)-4-(2-methylmorpholino)-6-morpholinopyrimidine], for which the GI50 in the data set on MCF-7 cells (setting [1]) came to 290 nM. On to `C[C@@H]1OCCN(c2nc(N3CCOCC3)nc(-n3c(C(F)F)nc4ccccc43)n2)[C@@H]1C` (relative stereo) [compound 13, 2-(2-difluoromethylbenzimidazol-1-yl)-4-(cis-2,3-dimethylmorpholino)-6-morpholino-1,3,5-triazine], for which the melting point is 207 to 210 °C. Turning to `CN(C)c1nc(N(C)C)nc(N(C)C)n1` [compound D, hexamethylmelamine, reference compound], the GI50 in the data set on MCF-7 cells (setting [1]) is greater than 100000 nM.
